Converted amounts (≈) assume the structure as drawn.
Assays:
Assay type in all cases: functional
[1] = tested on: Mycobacterium tuberculosis; test: Antimycobacterial activity against Streptomycin-resistant Mycobacterium tuberculosis ATCC 35820 assessed as inhibition of bacterial cell growth incubated for 7 days by resazurin microtiter assay; details: ATCC 35820, 168 h
[2] = tested on: Mycobacterium tuberculosis; test: Antimycobacterial activity against Rifampicin-resistant Mycobacterium tuberculosis ATCC 35838 assessed as inhibition of bacterial cell growth incubated for 7 days by resazurin microtiter assay; details: ATCC 35838, 168 h
[3] = tested on: Mycobacterium tuberculosis; test: Antimycobacterial activity against Pyrazinamide-resistant Mycobacterium tuberculosis ATCC 35828 assessed as inhibition of bacterial cell growth incubated for 7 days by resazurin microtiter assay; details: ATCC 35828, 168 h
[4] = tested on: Mycobacterium tuberculosis; test: Antimycobacterial activity against Isoniazid-resistant Mycobacterium tuberculosis ATCC 35822 assessed as inhibition of bacterial cell growth incubated for 7 days by resazurin microtiter assay; details: ATCC 35822, 168 h

| SMILES | MIC [1] | MIC [2] | MIC [3] | MIC [4] |
| --- | --- | --- | --- | --- |
| COC(=O)/C=C1\Nc2ccccc2OC1=O | 4.5 µM (≈ 0.986 µg/mL) | 9.1 µM (≈ 1.99 µg/mL) | 4.5 µM (≈ 0.986 µg/mL) | > 146 µM |
| COC(=O)/C=C1\Nc2cc(Cl)ccc2OC1=O | 63 µM (≈ 16 µg/mL) | 63 µM (≈ 16 µg/mL) | 31 µM (≈ 7.86 µg/mL) | > 126 µM |
| COC(=O)/C=C1\Nc2ccc(Cl)cc2OC1=O | 3.9 µM (≈ 0.989 µg/mL) | 3.9 µM (≈ 0.989 µg/mL) | 3.9 µM (≈ 0.989 µg/mL) | > 126 µM |
| O=C1Oc2ccccc2N/C1=C\C(=O)c1c[nH]c2ccccc12 | 3.3 µM (≈ 1 µg/mL) | 3.3 µM (≈ 1 µg/mL) | 3.3 µM (≈ 1 µg/mL) | > 105 µM |
| O=C1Oc2ccccc2N/C1=C\C(=O)c1cccs1 | 14.7 µM (≈ 3.99 µg/mL) | 14.7 µM (≈ 3.99 µg/mL) | 14.7 µM (≈ 3.99 µg/mL) | 118 µM (≈ 32 µg/mL) |
| O=C1Oc2ccccc2N/C1=C\C(=O)N1CCOCC1 | 7.3 µM (≈ 2 µg/mL) | 7.3 µM (≈ 2 µg/mL) | 3.6 µM (≈ 0.987 µg/mL) | > 117 µM |
| O=C(NNC(=O)c1ccncc1)C(=O)Nc1ccccc1O | 26.7 µM (≈ 8.02 µg/mL) | 3.3 µM (≈ 0.991 µg/mL) | 6.7 µM (≈ 2.01 µg/mL) | > 106 µM |
| O=C(NNC(=O)c1ccncc1)C(=O)Nc1ccc(Cl)cc1O | 24 µM (≈ 8.03 µg/mL) | 12 µM (≈ 4.02 µg/mL) | 12 µM (≈ 4.02 µg/mL) | > 96 µM |
| O=C(NNC(=O)c1ccncc1)C(=O)Nc1cc(Cl)ccc1O | 24 µM (≈ 8.03 µg/mL) | 12 µM (≈ 4.02 µg/mL) | 12 µM (≈ 4.02 µg/mL) | > 96 µM |
| NNC(=O)c1ccncc1 [ISONIAZID] | 1.8 µM (≈ 0.247 µg/mL) | 1.8 µM (≈ 0.247 µg/mL) | 1.8 µM (≈ 0.247 µg/mL) | > 233 µM |

— ChEMBL document CHEMBL4433266, “Design, synthesis and antimycobacterial activity of benzoxazinone derivatives and open-ring analogues: Preliminary data and computational analysis” (Bioorg Med Chem Lett, 2019)
